Laboratory results published in patent US20240158446A1, “CYCLIC COMPOUND HAVING SELECTIVE INHIBITORY ACTION ON KRAS OVER HRAS AND NRAS” (CHUGAI SEIYAKU KABUSHIKI KAISHA, priority 2021, published 2024).
Where two headings read alike, the source gives them in different places. Where a SMILES comes first, the peptide text is derived from it. Bridges are numbered along the chain shown (N, C = ends). [ ]: non-standard residue; d: D form. The star is where a group is joined. hPhe(3,5-F2-4-CF3) = N[C@@H](CCc1cc(F)c(C(F)(F)F)c(F)c1)C(=O)O; hPhe(3-Cl-4-CF3) = N[C@@H](CCc1ccc(C(F)(F)F)c(Cl)c1)C(=O)O; NPrPhe(4-CF3) = CCCN[C@@H](Cc1ccc(C(F)(F)F)cc1)C(=O)O; NMeGly(cPent) = CN[C@H](C(=O)O)C1CCCC1; Ac4c(3,3-F2) = NC1(C(=O)O)CC(F)(F)C1; NEtLeu = CCN[C@@H](CC(C)C)C(=O)O; NMeD = CN[C@@H](CC(=O)O)C(=O)O; NMeL = CN[C@@H](CC(C)C)C(=O)O; Morpholide = C1CN(*)CCO1; NMeA = CN[C@@H](C)C(=O)O; Ac5c = NC1(C(=O)O)CCCC1; Aze = O=C(O)[C@@H]1CCN1; Sar = CNCC(=O)O

Assays:
[1] = target: GDP-bound NRAS wild-type protein (Homo sapiens, UniProt P01111); assay: Binding to NRAS by surface plasmon resonance (SPR), Single Cycle Kinetics; conditions: for NRAS/KRAS (ratio of KD value for NRAS to KD value for KRAS) / NRAS/KRAS (ratio of KD value with respect to NRAS to KD value with respect to KRAS): SPR, GDP-bound NRAS wild-type protein vs GDP-bound KRAS wild-type protein
[2] = target: GDP-bound HRAS wild-type protein (Homo sapiens, UniProt P01112); assay: Binding to HRAS by surface plasmon resonance (SPR), Single Cycle Kinetics; conditions: for HRAS/KRAS (ratio of KD value for HRAS to KD value for KRAS) / HRAS/KRAS (ratio of KD value with respect to HRAS to KD value with respect to KRAS): SPR, GDP-bound HRAS wild-type protein vs GDP-bound KRAS wild-type protein
[3] = target: GDP-bound KRAS wild-type protein (Homo sapiens, UniProt P01116); assay: Binding to KRAS by surface plasmon resonance (SPR), Single Cycle Kinetics; conditions: GDP-bound KRAS wild-type protein, read-out: KRAS KD
[4] = SPR Single Cycle Kinetics, 1:1 binding model

Chain of GDP-bound HRAS wild-type protein (P01112 whole entry): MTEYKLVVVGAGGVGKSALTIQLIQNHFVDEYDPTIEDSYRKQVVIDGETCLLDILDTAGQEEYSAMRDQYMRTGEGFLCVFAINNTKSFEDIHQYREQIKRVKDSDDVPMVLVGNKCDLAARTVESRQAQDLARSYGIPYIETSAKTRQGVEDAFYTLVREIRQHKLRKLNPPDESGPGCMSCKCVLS
Chain of GDP-bound NRAS wild-type protein (P01111 whole entry): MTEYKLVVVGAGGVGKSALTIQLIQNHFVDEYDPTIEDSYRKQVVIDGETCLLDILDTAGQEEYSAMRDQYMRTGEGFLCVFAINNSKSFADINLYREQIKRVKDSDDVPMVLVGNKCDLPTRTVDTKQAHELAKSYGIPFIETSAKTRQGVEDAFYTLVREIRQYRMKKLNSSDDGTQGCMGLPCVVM
Chain of GDP-bound KRAS wild-type protein (P01116 whole entry): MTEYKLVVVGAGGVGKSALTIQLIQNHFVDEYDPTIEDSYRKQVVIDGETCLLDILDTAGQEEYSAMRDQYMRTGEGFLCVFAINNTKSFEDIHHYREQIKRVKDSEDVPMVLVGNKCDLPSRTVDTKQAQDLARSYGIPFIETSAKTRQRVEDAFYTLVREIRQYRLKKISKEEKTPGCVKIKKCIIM

SMILES	NRAS/KRAS (ratio of KD value for NRAS to KD value for KRAS) [1]	HRAS/KRAS (ratio of KD value for HRAS to KD value for KRAS) [2]	Kd ([3]; SPR, Single Cycle Kinetics) [nM]	Kd [3, 4] [nM]	NRAS/KRAS (ratio of KD value with respect to NRAS to KD value with respect to KRAS) [1]	HRAS/KRAS (ratio of KD value with respect to HRAS to KD value with respect to KRAS) [2]	NRAS/KRAS (ratio of KD value with respect to GDP-bound NRAS wild-type protein to KD value with respect to KRAS) ([1]; SPR KD ratio NRAS/KRAS, class symbols)	HRAS/KRAS (ratio of KD value with respect to GDP-bound HRAS wild-type protein to KD value with respect to KRAS) ([2]; SPR KD ratio HRAS/KRAS, class symbols)
CCOC[C@H]1C(=O)N[C@@H]([C@@H](C)CC)C(=O)N2CCC[C@H]2C(=O)N(C)[C@H]2C/C=C\CCN(C2=O)[C@@H](Cc2ccc(C(F)(F)F)cc2)C(=O)N(C)CC(=O)N[C@@H](CCc2ccc(C(F)(F)F)c(OC)c2)C(=O)N2C[C@H](OCC)C[C@H]2C(=O)N(C)C2(CCC2)C(=O)N(C)[C@@H](C(CC)CC)C(=O)N(C)[C@H](C(=O)N(C)C)CC(=O)N1C [PP2319]	AA (a compound having 20 or more is denoted as AA)	A (a compound having 10 or more and less than 20 is denoted as A)	0.35	–	–	–	–	–
CCO[C@@H]1C[C@H]2C(=O)NC3(CCC3)C(=O)N(C)[C@@H](C3CCCC3)C(=O)N(C)[C@H](C(=O)N(C)C)CC(=O)N(C)[C@@H](CC)C(=O)N[C@@H]([C@@H](C)CC)C(=O)N3C[C@H](OCC)C[C@H]3C(=O)N(C)[C@H]3C/C=C\CCN(C3=O)[C@@H](Cc3ccc(C(F)(F)F)cc3)C(=O)N(C)CC(=O)N[C@@H](CCc3cc(F)c(C(F)(F)F)c(F)c3)C(=O)N2C1 [PP1057]	A (a compound having 10 or more and less than 20 is denoted as A)	B (a compound having 3 or more and less than 10 is denoted as B)	0.31	–	–	–	–	–
CCCN1C(=O)[C@@H]2CCN2C(=O)[C@H](C)N(C)C(=O)[C@H]([C@@H](C)CC)NC(=O)[C@H](CC(C)C)N(CC)C(=O)C[C@@H](C(=O)N2CCOCC2)N(C)C(=O)[C@H](C2CCCC2)N(C)C(=O)C2(CCCC2)NC(=O)[C@@H]2CCCN2C(=O)[C@H](CCc2ccc(C(F)(F)F)c(Cl)c2)NC(=O)CN(C)C(=O)[C@@H]1Cc1ccc(C(F)(F)F)cc1 [PP0151] ([NEtLeu]I[NMeA][Aze][NPrPhe(4-CF3)][Sar][hPhe(3-Cl-4-CF3)]P[Ac5c][NMeGly(cPent)][NMeD]-Morpholide; lactam N-11)	C (A compound having a KD ratio of 0.1 or more and less than 3 is denoted as C)	C (A compound having a KD ratio of 0.1 or more and less than 3 is denoted as C)	–	0.5	–	–	–	–
CCO[C@@H]1C[C@H]2C(=O)N[C@]3(C)CCCCCC[C@@H](C(=O)N[C@@H]([C@@H](C)CC)C(=O)N(C)CC(=O)N(C)[C@H]4CCCCN(C4=O)[C@@H](Cc4ccc(C(F)(F)F)cc4)C(=O)N(C)CC(=O)N[C@@H](CCc4cc(F)c(C(F)(F)F)c(F)c4)C(=O)N2C1)N(C)C(=O)C[C@@H](C(=O)N1CCOCC1)N(C)C(=O)[C@H](C1CCCC1)N(C)C3=O [PP0992]	B (a compound having 3 or more and less than 10 is denoted as B)	B (a compound having 3 or more and less than 10 is denoted as B)	4.6	–	–	–	–	–
CCO[C@@H]1C[C@H]2C(=O)NC3(CCC3)C(=O)N(C)[C@@H](C3CCCC3)C(=O)N(C)[C@H](C(=O)N3C[C@@H](C)O[C@@H](C)C3)CC(=O)N(C)[C@@H](CC(C)C)C(=O)N[C@@H]([C@@H](C)CC)C(=O)N(C)CC(=O)N(C)[C@H]3CCCCCN(C3=O)[C@@H](Cc3ccc(F)cc3)C(=O)N(C)CC(=O)N[C@@H](CCc3ccc(C(F)(F)F)c(Cl)c3)C(=O)N2C1 [PP1153]	B (a compound having 3 or more and less than 10 is denoted as B)	B (a compound having 3 or more and less than 10 is denoted as B)	0.28	–	–	–	–	–
CC[C@H](C)[C@@H]1NC(=O)[C@H](CC(C)C)N(C)C(=O)C[C@@H](C(=O)N2CCOCC2)N(C)C(=O)[C@H](C2CCCC2)N(C)C(=O)C2(CCC2)NC(=O)[C@@H]2[C@@H](O)CCN2C(=O)[C@H](CCc2cc(F)c(C(F)(F)F)c(F)c2)NC(=O)CN(C)C(=O)[C@H](Cc2ccc(C(F)(F)F)cc2)N2CCCC[C@@H](C2=O)N(C)C(=O)CN(C)C1=O [PP0869]	B (a compound having 3 or more and less than 10 is denoted as B)	B (a compound having 3 or more and less than 10 is denoted as B)	0.056	–	–	–	–	–
CCO[C@@H]1C[C@H]2C(=O)NC3(CCC3)C(=O)N(C)[C@@H](C3CCCC3)C(=O)N(C)[C@H](C(=O)N(C)C)CC(=O)N(C)[C@@H](CCOC)C(=O)N[C@@H]([C@@H](C)CC)C(=O)N(C)CC(=O)N(C)[C@H]3CCCCN(C3=O)[C@@H](Cc3ccc(C(F)(F)F)cc3)C(=O)N(C)CC(=O)N[C@@H](CCc3cc(F)c(C(F)(F)F)c(F)c3)C(=O)N2C1 [PP0705]	–	–	–	0.027	C (A compound having a KD ratio of 0.1 or more and less than 3 is denoted as C)	C (A compound having a KD ratio of 0.1 or more and less than 3 is denoted as C)	–	–
CCC[C@H]1C(=O)N[C@@H]([C@@H](C)CC)C(=O)N(C)CC(=O)N(C)[C@H]2C/C=C\CCN(C2=O)[C@@H](Cc2ccc(C)cc2)C(=O)N(C)CC(=O)N[C@@H](CCc2ccc(Cl)c(C(F)(F)F)c2)C(=O)N2C[C@H](OCC)C[C@H]2C(=O)NC2(CC(C)(C)C2)C(=O)N(C)[C@@H](C(CC)CC)C(=O)N(C)[C@H](C(=O)N(C)C)CC(=O)N1C [PP2787]	–	–	–	0.36	–	–	AA (a compound having 20 or more is denoted as AA)	A (a compound having 10 or more and less than 20 is denoted as A)
C#CC[C@H]1C(=O)N[C@@H]([C@@H](C)CC)C(=O)N(C)CC(=O)N(C)[C@H]2C/C=C\CCN(C2=O)[C@@H](Cc2ccc(C(F)(F)F)cc2)C(=O)N(C)CC(=O)N[C@@H](CCc2cc(F)c(C(F)(F)F)c(F)c2)C(=O)N2C[C@H](OCC)C[C@H]2C(=O)NC2(CC(C)(C)C2)C(=O)N(C)[C@@H](C2CCCC2)C(=O)N(C)[C@H](C(=O)N(C)CCC)CC(=O)N1C [PP2074]	A (a compound having 10 or more and less than 20 is denoted as A)	A (a compound having 10 or more and less than 20 is denoted as A)	0.11	–	–	–	–	–
CCCN1C(=O)[C@@H]2CCN2C(=O)CN(C)C(=O)[C@H]([C@@H](C)CC)NC(=O)[C@H](CC(C)C)N(C)C(=O)C[C@@H](C(=O)N2CCOCC2)N(C)C(=O)[C@H](C2CCCC2)N(C)C(=O)C2(CC(F)(F)C2)NC(=O)[C@@H]2CCCN2C(=O)[C@H](CCc2cc(F)c(C(F)(F)F)c(F)c2)NC(=O)CN(C)C(=O)[C@@H]1Cc1ccc(C(F)(F)F)cc1 [PP0802] ([NMeL]I[Sar][Aze][NPrPhe(4-CF3)][Sar][hPhe(3,5-F2-4-CF3)]P[Ac4c(3,3-F2)][NMeGly(cPent)][NMeD]-Morpholide; lactam N-11)	–	–	–	0.082	C (A compound having a KD ratio of 0.1 or more and less than 3 is denoted as C)	B (a compound having 3 or more and less than 10 is denoted as B)	–	–
CCO[C@@H]1C[C@H]2C(=O)NC3(CC(C)(C)C3)C(=O)N(C)[C@@H](C(CC)CC)C(=O)N(C)[C@H](C(=O)N(C)C)CC(=O)N(C)[C@@H](CC)C(=O)N[C@@H]([C@@H](C)CC)C(=O)N(C)CC(=O)N(C)[C@H]3C/C=C\CCN(C3=O)[C@@H](Cc3ccc(C)cc3)C(=O)N(C)CC(=O)N[C@@H](CCc3ccc(C(F)(F)F)c(OC)c3)C(=O)N2C1 [PP2170]	A (a compound having 10 or more and less than 20 is denoted as A)	A (a compound having 10 or more and less than 20 is denoted as A)	0.33	–	–	–	–	–
